Experimental data taken from patent publication US9982073B2, “Homopolymers of terpenoid alcohols and their uses” (priority 2015, dated 2018).

Assays:
Type in all cases: cell-based
Candida albicans = assay: Disk inhibition testing, C. albicans; conditions: 24 hours at 37° C.
Protocol: (§1) Plates of Sabourad Dextrose Agar (Difco) and tubes of Malt Extract Broth (20 mL/tube) were prepared according to manufacturer direction using aseptic techniques. Fungal broths of Saccharomyces cerevisiae and Candida albicans were prepared in a tissue culture hood by transferring frozen stock culture (−70° C. freezer, prepared from ATCC bought strains) of the given fungi to the broth tube. The S. cerevisiae culture tubes were incubated for 48 hours at 30° C. and the C. albicans culture tubes were incubated for 48 hours at 37° C.
(§2) Each sample (˜15 mg) was dissolved in a solvent (3.000 mL of tetrahydrofuran or 3.000 mL distilled water) depending on the sample's solubility. The sample (20 μL of sample solution or 100 μg of sample was then transferred to a sterile filter paper disk. The disk was then allowed to dry so that all solvent was evaporated and 100 μg of sample remained on the disk.
Plates of Sabourad Dextrose Agar (Difco) were prepared according to manufacture directions using aseptic techniques. […]
(§3) The C. albicans and A. fumigfatus plates were incubated for 24 hours at 37° C., the A. niger plates were incubated for 48 hours at 25° C. and the S. cerevisiae plates were incubated for 24 hours at 30° C. […] Where a zone of growth inhibition was observed, the diameter of the ring was measured to the closest 0.1 mm using a caliper. […]

Aspergillus niger = assay: Disk inhibition testing, A. niger; conditions: 48 hours at 25° C.
Protocol: (§4) Fungal broths of Aspergillus fumigatus and Aspergillus niger were prepared in a tissue culture hood by transferring the frozen stock culture (−70° C. freezer) of the given fungi to a plate of Sabourad Dextrose Agar. The A. fumigatus culture plates were incubated for 48 hours at 37° C. and the A. niger culture plates were incubated for 72 hours at 25° C. The fungal broth was prepared by using a cork borer to add 2-3 circular pieces of agar containing active fungal growth to distilled water (4.0 mL). A tissue homogenizer was then used to grind the agar and create a suspension of fungal spores.
as §2, with “the disk. […]” for “the disk.”
as §3

Saccharomyces cerevisiae = assay: Disk inhibition testing, S. cerevisiae; conditions: 24 hours at 30° C.; for zone of inhibition at 100 µg/disc: Saccharomyces cerevisiae, 100 μg sample per disk, NI = no inhibition, read-out: Diameter of zone of growth inhibition, S. Cerevisiae
Protocol: as §1, §2
Plates of Sabourad Dextrose Agar (Difco) were prepared according to manufacture directions using aseptic techniques. The fungal agar plates were prepared using the culture broth of S. cerevisiae, C. albicans, A. fumigatus or A. niger as prepared above after the incubation period. In a tissue culture hood, the fungal culture broth solution (200 μL) was transferred to each Sabourad Dextrose Agar plate and spread evenly over the agar and allowed to dry for a minimum of 20 minutes. Four sample disks or control antifungal disks were then places onto each agar plate, one in the center of each quadrant of the plate. The sample disks were prepared as described above and the antifungal disks were pre-made disks of 20 μg of amphotericin B.
The C. albicans and A. fumigfatus plates were incubated for 24 hours at 37° C., the A. niger plates were incubated for 48 hours at 25° C. and the S. cerevisiae plates were incubated for 24 hours at 30° C. The plates were then observed for zones of fungal growth inhibition. Where a zone of growth inhibition was observed, the diameter of the ring was measured to the closest 0.1 mm using a caliper. […]

Aspergillus fumigatus = assay: Disk inhibition testing, A. fumigatus; conditions: pre-made antifungal disk 20 μg; 24 hours at 37° C.
Protocol: as §4
as §2, with “the disk. […]” for “the disk.”
as §3

Pseudomonas aeruginosa = assay: Disk inhibition testing, P. aeruginosa; conditions: 24 hours at 37° C.
Protocol: (§5) Tubes of Tryptic Soy Broth (10 mL/tube,) were prepared according to manufacturer directions (Difco) using aseptic techniques. Bacterial broth of Escherichia coli, Staphylococcus aureus, Pseudomonas aeruginosa, Proteus hauseri, and Bacillus cereus were prepared in a tissue culture hood by transferring frozen stock culture (−70° C. freezer, prepared from ATCC bacterial quality control strains) of the given bacteria to the broth tube. The E. coli, S. aureus, P. aeruginosa, and P. hauseri culture tubes were then incubated for 24 hours at 37° C. and the B. cereus culture tubes were incubated at 30° C. for 24 hours.
as §2
(§6) Plates of Mueller Hinton II Agar (Difco) were prepared according to manufacturer directions using aseptic techniques. The bacterial agar plates were prepared using the bacterial culture broth of E. coli, S. aureus, P. aeruginosa, P. hauseri, or B. cereus as prepared above after the incubation period. In a tissue culture hood, the given bacterial culture broth solution (300 μL) was transferred to each Mueller Hinton Agar II plate and spread evenly over the agar and allowed to dry for a minimum of 20 minutes. Four sample disks (as prepared above) or control antibiotic disks (pre-made disks) were then places onto each agar plate, one in the center of each quadrant of the plate.
(§7) The E. coli, S. aureus, P. aeruginosa, and P. hauseri, plates were incubated for 24 hours at 37° C. and the B. cereus plates were incubated for 24 hours at 30° C. The plates were then observed for zones of bacterial growth inhibition. Where a zone of growth inhibition was observed, the diameter of the ring was measured to the closest 0.1 mm using a caliper. […] The absence of a uniform bacterial lawn was ruled a failed test and in this case the test would need to be repeated in order to achieve meaningful results.

Escherichia coli = assay: Disk inhibition testing, E. coli; conditions: 24 hours at 37° C.; for zone of inhibition at 100 µg/disc: Escherichia coli, 100 μg sample per disk, NI = no inhibition, read-out: Diameter of zone of growth inhibition, E. Coli
Protocol: as §5, §2, §6, §7

Proteus hauseri = assay: Disk inhibition testing, P. hauseri; conditions: 24 hours at 37° C.; for zone of inhibition at 100 µg/disc: Proteus hauseri, 100 μg sample per disk, NI = no inhibition, read-out: Diameter of zone of growth inhibition, P. Hauseri
Protocol: as §5, §2, §6, §7

Bacillus cereus = assay: Disk inhibition testing, B. cereus; conditions: pre-made control disk 30 μg; 24 hours at 30° C.
Protocol: as §5, §2
Plates of Mueller Hinton II Agar (Difco) were prepared according to manufacturer directions using aseptic techniques. […]
The E. coli, S. aureus, P. aeruginosa, and P. hauseri, plates were incubated for 24 hours at 37° C. and the B. cereus plates were incubated for 24 hours at 30° C. […] Where a zone of growth inhibition was observed, the diameter of the ring was measured to the closest 0.1 mm using a caliper. […]

Staphylococcus aureus = assay: Disk inhibition testing, S. aureus; conditions: 24 hours at 37° C.; for zone of inhibition at 100 µg/disc: Staphylococcus aureus, 100 μg sample per disk, NI = no inhibition, read-out: Diameter of zone of growth inhibition, S. Aureus
Protocol: as §5, §2, §6, §7

## C[C@@H]1[C@H](O)[C@@H](C)/C=C/C=C/C=C/C=C/C=C/C=C/C=C/[C@H](O[C@@H]2O[C@H](C)[C@@H](O)[C@H](N)[C@@H]2O)C[C@@H]2O[C@](O)(C[C@@H](O)C[C@@H](O)[C@H](O)CC[C@@H](O)C[C@@H](O)CC(=O)O[C@H]1C)C[C@H](O)[C@H]2C(=O)O [Amphotericin B, amphotericin B]
Candida albicans; pre-made antifungal disk 20 μg
  Diameter of zone of growth inhibition, C. Albicans: 12.9 mm
Aspergillus niger; pre-made antifungal disk 20 μg
  Diameter of zone of growth inhibition, A. Niger: 9.7 mm
Saccharomyces cerevisiae; pre-made antifungal disk 20 μg
  Diameter of zone of growth inhibition, S. Cerevisiae: 10.2 mm
Aspergillus fumigatus
  Diameter of zone of growth inhibition, A. Fumigratus: 11.4 mm

## CC1(C)S[C@@H]2[C@H](NC(=O)[C@H](N)c3ccccc3)C(=O)N2[C@H]1C(=O)O [Ampicillin]
Pseudomonas aeruginosa; pre-made control disk 10 μg, NI = no inhibition
  Diameter of zone of growth inhibition, P. Aeriginosa: 9.1 mm
Escherichia coli; pre-made control disk 10 μg
  Diameter of zone of growth inhibition, E. Coli: 19.7 mm
Proteus hauseri; pre-made control disk 10 μg
  Diameter of zone of growth inhibition, P. Hauseri: 7.2 mm

## C=CC(C)(O)CCC=C(C)C (centres unmarked) [Linalool]
Pseudomonas aeruginosa; Pseudomonas aeruginosa, 100 μg sample per disk, NI = no inhibition, read-out: Diameter of zone of growth inhibition, P. Aeriginosa
  zone of inhibition at 100 µg/disc: 7.1 mm
Escherichia coli
  zone of inhibition at 100 µg/disc: 7.2 mm
Saccharomyces cerevisiae
  zone of inhibition at 100 µg/disc: 7.3 mm

## O=C(N[C@H](CO)[C@H](O)c1ccc([N+](=O)[O-])cc1)C(Cl)Cl [Chloramphenicol]
Bacillus cereus
  Diameter of zone of growth inhibition, B. Cereus: 15.7 mm
Pseudomonas aeruginosa; pre-made control disk 30 μg
  Diameter of zone of growth inhibition, P. Aeriginosa: 18.7 mm
Escherichia coli; pre-made control disk 30 μg
  Diameter of zone of growth inhibition, E. Coli: 24.4 mm
Proteus hauseri; pre-made control disk 30 μg
  Diameter of zone of growth inhibition, P. Hauseri: 16.7 mm
Staphylococcus aureus; pre-made control disk 30 μg
  Diameter of zone of growth inhibition, S. Aureus: 17.8 mm

## CC(C)=CCCC(C)CCO (centres unmarked) [Citronellol]
Escherichia coli
  zone of inhibition at 100 µg/disc: 8.7 mm
Proteus hauseri
  zone of inhibition at 100 µg/disc: 8.8 mm
Saccharomyces cerevisiae
  zone of inhibition at 100 µg/disc: 6.7 mm
Staphylococcus aureus
  zone of inhibition at 100 µg/disc: 5.4 mm

## Penicillin
Escherichia coli; pre-made control disk 10 μg
  Diameter of zone of growth inhibition, E. Coli: 9.4 mm
Proteus hauseri; pre-made control disk 10 μg
  Diameter of zone of growth inhibition, P. Hauseri: 8.1 mm
Staphylococcus aureus; pre-made control disk 10 μg
  Diameter of zone of growth inhibition, S. Aureus: 16.9 mm

## CC(C)=CCC/C(C)=C/CO [Geraniol]
Candida albicans; Candida albicans, 100 μg sample per disk, NI = no inhibition, read-out: Diameter of zone of growth inhibition, C. Albicans
  zone of inhibition at 100 µg/disc: 8.3 mm
Aspergillus niger; Aspergillus niger, 100 μg sample per disk, NI = no inhibition, read-out: Diameter of zone of growth inhibition, A. Niger
  zone of inhibition at 100 µg/disc: 8.1 mm
Escherichia coli
  zone of inhibition at 100 µg/disc: 8.5 mm
Proteus hauseri
  zone of inhibition at 100 µg/disc: 9.3 mm
Staphylococcus aureus
  zone of inhibition at 100 µg/disc: 4.7 mm

## CN(C)[C@@H]1C(O)=C(C(N)=O)C(=O)[C@@]2(O)C(O)=C3C(=O)c4c(O)cccc4[C@@](C)(O)[C@H]3C[C@@H]12 [Tetracycline]
Bacillus cereus
  Diameter of zone of growth inhibition, B. Cereus: 23.4 mm
Pseudomonas aeruginosa; pre-made control disk 30 μg
  Diameter of zone of growth inhibition, P. Aeriginosa: 12.3 mm
Escherichia coli; pre-made control disk 30 μg
  Diameter of zone of growth inhibition, E. Coli: 21.4 mm
Proteus hauseri; pre-made control disk 30 μg
  Diameter of zone of growth inhibition, P. Hauseri: 15.9 mm
Staphylococcus aureus; pre-made control disk 30 μg
  Diameter of zone of growth inhibition, S. Aureus: 19.0 mm
